Data set [1] concerns CYP1A1 and 1A2. Briefly: Ethoxyresorufin-O-deethylase (EROD) activity on cultured hepatocytes from humanized FRG mouse liver. Particulars: humanized mouse liver cells, FIG. 6a. Type of data set: cell-based, human.
Data set [2] deals with human drug metabolism genes. Briefly: Induction of mRNAs involved in drug metabolism in cultured hepatocytes from chimeric mice (real-time PCR). The source says: (§1) The basal expression and induction of human liver specific genes in chimeric mice was examined. […] Primers, obtained from Applied Biosystems, were specific for human CYP1A1 (Hs00153120_m1), CYP1A2 (Hs00167927_m1), CYP3A4 (Hs00430021_m1), CYP3A7 (Hs00426361_a1), CYP2B6 (Hs00167937_g1), CYP2D6 (Hs00164385_a1), Multidrug resistance associated protein MRP2 (Hs00166123_m1), Bile Salt export Pump BSEP, (Hs00184829_m1), CAR (Hs00231959_m1) Albumin (Hs00609411_m1), HNF4α (Hs00230853_m1), Cyclophillin (Hs99999904_m1) and mouse actin (Ma00607939_s1).
(§2) Cultures of isolated hepatocytes were established and exposed to prototypical inducers of the cytochrome P450 genes. […] In addition to the mRNA expression levels of human drug metabolism genes, the enzymatic activity of the human CYP1A and 3A family members were measured. Ethoxyresorufin-O-deethylase activity (EROD) is known to be mediated by CYP1A1 and 1A2 in human liver.
A general note: In qPCR the cycle at which signal appears reflects the starting amount.

The test system of data set [3] is FRG mice. Description: Maintenance of FRG mice with NTBC in drinking water and NTBC withdrawal. Type of data set: in vivo, mouse. An excerpt: Several strains of immune-deficient Fah knockout mice were generated. Crossing the Fah mutation onto nude, nod/scid or Rag1^−/− backgrounds was unsuccessful. To generate an immunodeficient Fah^−/− mouse strain completely lacking T cells, B cells and NK cells, but without a DNA repair defect, Fah^−/−/Rag2^−/−/Il2rg^−/− (FRG) mice were generated. Male Fah^−/−129S4 mice (Grompe et al. Genes Dev. 7:2298-2307, 1993) were crossed with female Rag2^−/−/Il2rg^−/− mice (Taconic). All animals were maintained with drinking water containing 2-(2-nitro-4-trifluoro-methyl-benzoyl)-1,3 cyclohexanedione (NTBC) at a concentration of 1.6 mg/L (Grompe et al. Nat. Genet. 10:453-460, 1995). To confirm the genotypes of each animal, PCR-based genotyping was carried out on 200 ng genomic DNA isolated from toe tissue (Grompe et al. Genes Dev. 7:2298-2307, 1993; Traggiai et al. Science 304:104-107, 2004).

Data set [4] has as its system CYP3A4. Description: Conversion of testosterone to 6-beta-hydroxyltestosterone in cultured hepatocytes from humanized FRG mouse liver. Particulars: cultured hepatocytes from repopulated FRG livers, FIG. 6b.
Text: as §1, §2

Take `O=c1cc(-c2ccccc2)oc2ccc3ccccc3c12` [BNF, beta-naphthoflavone]: the “EROD activity after prior exposure to inducer” value in data set [1] is “specifically and robustly induced”. Also, the “pattern of genes induced” value in data set [2] (cultured hepatocytes from chimeric mice, FIG. 7) is on record as “as expected from normal human cells”.
On to `O=C1CCCC(=O)C1C(=O)c1ccc(C(F)(F)F)cc1[N+](=O)[O-]` [NTBC, 2-(2-nitro-4-trifluoro-methyl-benzoyl)-1,3 cyclohexanedione], for which the “time to death after NTBC withdrawal” value in data set [3] (FRG mice, gradual hepatocellular injury after withdrawal) is reported as 4-8 weeks. Besides, the “growth and fertility of FRG mice” value in data set [3] (NTBC continuously in drinking water, 1.6 mg/L) was “grew well and were fully fertile”.
For `CCC1(c2ccccc2)C(=O)NC(=O)NC1=O` [PB, phenobarbital], the “conversion of testosterone to 6-beta-hydroxyltestosterone after prior exposure to inducer” value in data set [4] is “specifically induced”. For the same compound, in data set [2] (relative to non-induced cultures, FIG. 7b), the “induction of CYP3A4 mRNA” value is “even more striking than at the enzyme level”.

Source of the values: US8569573B2 (priority 2007, dated 2013).
